Assay results from ChEMBL document CHEMBL1201862, “PubChem BioAssay data set” (2004).
Where “and” joins values, the source holds several entries; their conditions need not be identical. Equal entries are not always repeated.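 In this assay, cells in 96-well plates receive the compound at five concentrations for 48 hours. Endpoints are linearly interpolated between the surrounding concentrations. GI50 = concentration required for 50% inhibition of growth.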 Calls of active or inactive are those of the source. No stated cut-off is given here; in the data, active = GI50 up to about 1.1 µM and inactive = higher.

Key:
Assay in all cases: growth of human tumour cells (NCI), 48 h
[1] = test system: ACHN
[2] = test system: BT-549
[3] = test system: CAKI-1
[4] = test system: CCRF-CEM
[5] = test system: COLO 205
[6] = test system: DU-145
[7] = test system: EKVX
[8] = test system: HCC 2998
[9] = test system: HCT-15
[10] = test system: HL-60
[11] = test system: K562
[12] = test system: KM12
[13] = test system: NCI-H226
[14] = test system: NCI-H522
[15] = test system: OVCAR-8
[16] = test system: SNB-19
[17] = test system: T47D
[18] = test system: U-251
[19] = test system: UACC-257
[20] = test system: UO-31

SMILES | GI50 [1] | GI50 [2] | GI50 [3] | GI50 [4] | GI50 [5] | GI50 [6] | GI50 [7] | GI50 [8] | GI50 [9] | GI50 [10] | GI50 [11] | GI50 [12] | GI50 [13] | GI50 [14] | GI50 [15] | GI50 [16] | GI50 [17] | GI50 [18] | GI50 [19] | GI50 [20]
COc1cc([C@H]2OC[C@H]3[C@@H]2CO[C@@H]3c2cc(OC)c3c(c2)OCO3)cc(OC)c1OC | 39.1 µM (inactive) | 31.6 µM (inactive) and 52.1 µM (inactive) | 52.7 µM (inactive) and 25 µM (inactive) | 45.9 µM (inactive) and > 10 µM (inactive) | 48.3 µM (inactive) and 42.5 µM (inactive) | 81.3 µM (inactive) | 39.4 µM (inactive) and 40.9 µM (inactive) | 56 µM (inactive) and 27.9 µM (inactive) | 34.4 µM and 39.8 µM | 40 µM (inactive) and > 10 µM (inactive) | 39.4 µM (inactive) and 73.3 µM (inactive) | 50.5 µM (inactive) and 95.1 µM (inactive) | 43.5 µM (inactive) and 47.4 µM (inactive) | 32.7 µM (inactive) and 20.7 µM (inactive) | 31.3 µM (inactive) and 49.3 µM (inactive) | 53.6 µM (inactive) and 43.8 µM (inactive) | 34.2 µM (inactive) and 37.9 µM (inactive) | 83 µM (inactive) and 57.9 µM (inactive) | 79.4 µM (inactive) and 50.2 µM (inactive) | 44.6 µM (inactive) and 38.3 µM (inactive)
CN(O)C(=O)c1ccc(OCc2cccc(Cl)c2)cc1 | 8.51 µM (inactive) | 22.8 µM (inactive) | 18.5 µM (inactive) | 5.12 µM (inactive) | 23.6 µM (inactive) | 27.4 µM (inactive) | 30.3 µM (inactive) | 15.3 µM (inactive) | 3.52 µM | 6.12 µM (inactive) | 22.6 µM (inactive) | 27.5 µM (inactive) | 19.5 µM (inactive) | 13.1 µM (inactive) | 19 µM (inactive) | 24.6 µM (inactive) | 43.1 µM (inactive) | 15.2 µM (inactive) | 38.2 µM (inactive) | 16.9 µM (inactive)
COc1ccc2c(c1)C=C([N+](=O)[O-])C(C1OC(C)(C)OC1C1COC(C)(C)O1)O2 (stereo not given) | 2.4 µM (inactive) | 2.74 µM (inactive) | 4.51 µM (inactive) | 0.386 µM (active) | 10.8 µM (inactive) | 16 µM (inactive) | 13.8 µM (inactive) | 13.3 µM (inactive) | 1.95 µM | 1.86 µM (inactive) | 1.44 µM (inactive) | 2 µM (inactive) | 14.6 µM (inactive) | 0.731 µM (active) | 2.85 µM (inactive) | 11.9 µM (inactive) | 12 µM (inactive) | 3.01 µM (inactive) | 2.77 µM (inactive) | 13.1 µM (inactive)
CC1=NN(C(=O)CC(=O)Nc2ccccc2Cl)C(=O)C1/N=N\c1ccc(S(=O)(=O)c2ccc(/N=N/C3C(=O)N(C(=O)CC(=O)Nc4ccccc4Cl)N=C3C)cc2)cc1 (stereo not given) | > 100 µM (inactive) | > 100 µM (inactive) | > 100 µM (inactive) | > 100 µM (inactive) | > 100 µM (inactive) | > 100 µM (inactive) | > 100 µM (inactive) | > 100 µM (inactive) | > 100 µM | > 100 µM (inactive) | > 100 µM (inactive) | > 100 µM (inactive) | > 100 µM (inactive) | > 100 µM (inactive) | > 100 µM (inactive) | > 100 µM (inactive) | > 100 µM (inactive) | > 100 µM (inactive) | > 100 µM (inactive) | > 100 µM (inactive)
CC(C)(C)c1ccc2c(c1)OCc1n[nH]c(n1)COc1cc(C(C)(C)C)ccc1OCCOCCO2 | 4.39 µM (inactive) | 2.81 µM (inactive) | 4.18 µM (inactive) | 5.31 µM (inactive) | 2.31 µM (inactive) | 6.52 µM (inactive) | 4.3 µM (inactive) | 3.72 µM (inactive) | 4.95 µM | 4.35 µM (inactive) | 4.27 µM (inactive) | 3.85 µM (inactive) | 2.71 µM (inactive) | 2.4 µM (inactive) | 3.79 µM (inactive) | 4.23 µM (inactive) | 3.48 µM (inactive) | 2.8 µM (inactive) | 2.65 µM (inactive) | 3.67 µM (inactive)
COc1ccc(C2C(C=O)C(N3CCN(C)CC3)=Nc3nc4ccccc4n32)cc1 (stereo not given) | 18.2 µM (inactive) | 14 µM (inactive) | 19.1 µM (inactive) | 2.31 µM (inactive) | 16.8 µM (inactive) | 17.8 µM (inactive) | 27.7 µM (inactive) | 17.7 µM (inactive) | 17.8 µM | 2.09 µM (inactive) | 1.08 µM (active) | 16.3 µM (inactive) | 16.7 µM (inactive) | 13 µM (inactive) | 16.2 µM (inactive) | 15.3 µM (inactive) | 11.7 µM (inactive) | 17.7 µM (inactive) | 16.6 µM (inactive) | 14.4 µM (inactive)
O=C1c2ccccc2S(=O)(=O)c2ccccc21 | > 100 µM (inactive) | > 100 µM (inactive) | > 100 µM (inactive) | > 100 µM (inactive) | > 100 µM (inactive) | > 100 µM (inactive) | 61.1 µM (inactive) | > 100 µM (inactive) | > 100 µM | > 100 µM (inactive) | > 100 µM (inactive) | > 100 µM (inactive) | > 100 µM (inactive) | > 100 µM (inactive) | > 100 µM (inactive) | > 100 µM (inactive) | > 100 µM (inactive) | > 100 µM (inactive) | > 100 µM (inactive) | > 100 µM (inactive)
O=C1c2ccccc2C(=O)c2sc(Nc3ccccc3Cl)nc21 | 5.68 µM (inactive) | 16 µM (inactive) | 4.06 µM (inactive) | 2.75 µM (inactive) | 14.6 µM (inactive) | 17.6 µM (inactive) | 14.3 µM (inactive) | 18.5 µM (inactive) | 9.38 µM | 0.713 µM (active) | 2.8 µM (inactive) | 15 µM (inactive) | 5.56 µM (inactive) | 3.69 µM (inactive) | 5.85 µM (inactive) | 14.5 µM (inactive) | 11.1 µM (inactive) | 4.93 µM (inactive) | 8.34 µM (inactive) | 10.6 µM (inactive)
CC(C)c1c(O)ccc2c1CCC1C(C)(C)CCCC21C (stereo not given) | 17.1 µM (inactive) | 18.5 µM (inactive) | 16.3 µM (inactive) | 24.4 µM (inactive) | 17.8 µM (inactive) | 14.8 µM (inactive) | 17.3 µM (inactive) | 22 µM (inactive) | 18.9 µM | 29 µM (inactive) | 21.6 µM (inactive) | 20.5 µM (inactive) | 17.7 µM (inactive) | 16.9 µM (inactive) | 17.8 µM (inactive) | 18.2 µM (inactive) | 0.0173 µM (active) | 18 µM (inactive) | 17.7 µM (inactive) | 17.4 µM (inactive)
N#Cc1cccc(C2ON=C(c3ccc([N+](=O)[O-])cc3)N2C23CC4CC(CC(C4)C2)C3)c1 (stereo not given) | > 100 µM (inactive) | 82.6 µM (inactive) | 11.7 µM (inactive) | > 100 µM (inactive) | > 100 µM (inactive) | > 100 µM (inactive) | > 100 µM (inactive) | > 100 µM (inactive) | 66.8 µM | 8.69 µM (inactive) | > 100 µM (inactive) | > 100 µM (inactive) | > 100 µM (inactive) | 24.3 µM (inactive) | > 100 µM (inactive) | > 100 µM (inactive) | 17.3 µM (inactive) | > 100 µM (inactive) | > 100 µM (inactive) | 24.1 µM (inactive)
Oc1ccccc1/C=N/c1ccc(-c2nc3ccccc3s2)cc1 | 22.4 µM (inactive) | 31.8 µM (inactive) | 28.2 µM (inactive) | 6.89 µM (inactive) | 19.6 µM (inactive) | 45.7 µM (inactive) | 21.3 µM (inactive) | 20.3 µM (inactive) | 24.4 µM | 11.8 µM (inactive) | 24.6 µM (inactive) | 22 µM (inactive) | 24.8 µM (inactive) | 17.3 µM (inactive) | 28.6 µM (inactive) | 48.4 µM (inactive) | 10.4 µM (inactive) | 30.9 µM (inactive) | 24 µM (inactive) | 28.5 µM (inactive)
CN(C)CCNc1ccc(CO)c2sc3ccc(O)cc3c(=O)c12 | 0.351 µM (active) | 2.62 µM (inactive) | 0.957 µM (active) | 0.171 µM (active) | 4.3 µM (inactive) | 0.467 µM (active) | 5.13 µM (inactive) | 2.58 µM (inactive) | 2.31 µM | 0.258 µM (active) | 2.06 µM (inactive) | 2.34 µM (inactive) | 1.15 µM (inactive) | 1.32 µM (inactive) | 1.97 µM (inactive) | 2.46 µM (inactive) | 1.91 µM (inactive) | 0.783 µM (active) | 5.24 µM (inactive) | 0.35 µM (active)
COc1ccc(/C(CC2OC(=O)c3ccccc32)=N\NC(=O)C[N+](C)(C)C)cc1 (stereo not given) | 28.2 µM (inactive) | 21.5 µM (inactive) | 40.3 µM (inactive) | 25.1 µM (inactive) | 27.5 µM (inactive) | 20.5 µM (inactive) | 39.4 µM (inactive) | 16.3 µM (inactive) | 19.2 µM | 33.4 µM (inactive) | 19.2 µM (inactive) | 21.2 µM (inactive) | 21.7 µM (inactive) | 24.7 µM (inactive) | 19.5 µM (inactive) | 29.5 µM (inactive) | 25.8 µM (inactive) | 17.2 µM (inactive) | 31.3 µM (inactive) | 26.5 µM (inactive)
CCN(C(=O)N[C@@H](C)C(=O)N[C@@H](Cc1ccccc1)C(=O)OC)c1ccccc1 | > 100 µM (inactive) | > 100 µM (inactive) | > 100 µM (inactive) | > 100 µM (inactive) | 31.5 µM (inactive) | 46 µM (inactive) | > 100 µM (inactive) | 81.5 µM (inactive) | 70.8 µM | 28.4 µM (inactive) | 32 µM (inactive) | > 100 µM (inactive) | > 100 µM (inactive) | 71.6 µM (inactive) | 51.3 µM (inactive) | > 100 µM (inactive) | 56.8 µM (inactive) | > 100 µM (inactive) | 49.1 µM (inactive) | 31.7 µM (inactive)
